Test [1] in a line: DSC doublet peak area of normal blonde hair after 12 heat cycles (lyxosylamine). The method, then: Normal brown hair was processed with Revlon Realistic Professional Extra-Strength Relaxer for 30 min. at standard room temperature and humidity. The relaxed brown hair was subjected to six heat cycles, each heat cycle comprised applying the treatment solutions to the hair, blow-drying the hair, and applying heat to the hair for 1 min. in the form of the Professional Flat Iron (Solid Gold) set at “High” (130° C. to 135° C.). The hair was shampooed with a 10% solution of sodium laureth sulfate after each heat cycle, that is, after the heat application and prior to application of the treatment solution.
Normal blonde hair was subjected to 12 heat cycles, as described in Example 2, using a 0.1 wt % solution of D-Lyxosylamine.

The nature of test [2]: DSC doublet peak area of bleached hair after twelve heat cycles (galactosamine). The method, then:
In the DSC experiments (using DSC-6 with Autosampler, Perkin Elmer), the hair was cut in small fragments (1-2 mm) and sealed in […] aluminum pans that were punctured prior to heating, resulting in a 50 micron laser-drilled opening in the pan lid. The hair was heated from 25° C. to 300° C. at a heating rate of 2^0° C./min. Three runs per section were performed. The results were averaged and standard deviations determined. Normal brown hair was processed with Revlon Realistic Professional Extra-Strength Relaxer for 30 min. at standard room temperature and humidity. The relaxed brown hair was subjected to six heat cycles, each heat cycle comprised applying the treatment solutions to the hair, blow-drying the hair, and applying heat to the hair for 1 min. in the form of the Professional Flat Iron (Solid Gold) set at “High” (130° C. to 135° C.). The hair was shampooed with a 10% solution of sodium laureth sulfate after each heat cycle, that is, after the heat application and prior to application of the treatment solution. Normal brown hair was bleached with […] Blonde Dimensions Dust-Free Bleached mixed with 40 volume (12% hydrogen peroxide). The bleached hair was then subject to twelve heat cycles. The heat treatment was as described in Example 2. The heat-treated hair was tested by DSC (Perkin Elmer Pyris 1 DSC) as described in Example 1. […]

Test [3] in a line: DSC doublet peak area of bleached hair after 6 and 12 heat cycles. The method, then:
In the DSC experiments (using DSC-6 with Autosampler, Perkin Elmer), the hair was cut in small fragments (1-2 mm) and sealed in […] aluminum pans that were punctured prior to heating, resulting in a 50 micron laser-drilled opening in the pan lid. The hair was heated from 25° C. to 300° C. at a heating rate of 2^0° C./min. Three runs per section were performed. The results were averaged and standard deviations determined. Normal brown hair was processed with Revlon Realistic Professional Extra-Strength Relaxer for 30 min. at standard room temperature and humidity. The relaxed brown hair was subjected to six heat cycles, each heat cycle comprised applying the treatment solutions to the hair, blow-drying the hair, and applying heat to the hair for 1 min. in the form of the Professional Flat Iron (Solid Gold) set at “High” (130° C. to 135° C.). The hair was shampooed with a 10% solution of sodium laureth sulfate after each heat cycle, that is, after the heat application and prior to application of the treatment solution. Normal brown hair was bleached using […] Blonding Gels Clear with 40 volume (12% hydrogen peroxide). The hair was subject to a total of twelve heat cycles. The heat treatment was as described in Example 2. The heat-treated hair was tested by DSC (Perkin Elmer Pyris 1 DSC) as described in Example 1. The hair was tested after Cycles 6 and 12. The treatment solutions included: a) deionized water, b) 0.001% (w/v) glucosamine hydrochloride solution, c) 0.010% (w/v) glucosamine hydrochloride solution, d) 0.100% (w/v) glucosamine hydrochloride solution, and e) 1.000% (w/v) glucosamine hydrochloride solution. Three DSC runs per treatment were performed, the results were averaged, and standard deviations determined.

A short description of test [4]: DSC doublet peak area (alpha-structure) of relaxed hair after six heat cycles. The protocol: In the DSC experiments (using DSC-6 with Autosampler, Perkin Elmer), the hair was cut in small fragments (1-2 mm) and sealed in […] aluminum pans that were punctured prior to heating, resulting in a 50 micron laser-drilled opening in the pan lid. The hair was heated from 25° C. to 300° C. at a heating rate of 2^0° C./min. Three runs per section were performed. The results were averaged and standard deviations determined. Normal brown hair was processed with Revlon Realistic Professional Extra-Strength Relaxer for 30 min. at standard room temperature and humidity. The relaxed brown hair was subjected to six heat cycles, each heat cycle comprised applying the treatment solutions to the hair, blow-drying the hair, and applying heat to the hair for 1 min. in the form of the Professional Flat Iron (Solid Gold) set at “High” (130° C. to 135° C.). The hair was shampooed with a 10% solution of sodium laureth sulfate after each heat cycle, that is, after the heat application and prior to application of the treatment solution. The treatment solutions included: a) deionized water; and b) 1% (w/v) glucosamine hydrochloride (Glucosamine HCl). The hair swatches from Example 2 were studied by differential scanning calorimetry (DSC). In this example, the hair was equilibrated at standard room temperature and humidity for 24 hours prior to testing.

The nature of test [5]: Wet tensile strength (Dia-Stron) of relaxed hair after six heat cycles. The method, then:
Normal brown hair was processed with Revlon Realistic Professional Extra-Strength Relaxer for 30 min. at standard room temperature and humidity. The relaxed brown hair was subjected to six heat cycles, each heat cycle comprised applying the treatment solutions to the hair, blow-drying the hair, and applying heat to the hair for 1 min. in the form of the Professional Flat Iron (Solid Gold) set at “High” (130° C. to 135° C.). The hair was shampooed with a 10% solution of sodium laureth sulfate after each heat cycle, that is, after the heat application and prior to application of the treatment solution. The treatment solutions included: a) deionized water; and b) 1% (w/v) glucosamine hydrochloride (Glucosamine HCl). The hair was tested for wet tensile strength using a Dia-Stron. The fibers were stretched in water at a rate of 10 mm/min., with 50 fibers per test. The results were averaged, and standard deviations determined. As used herein, “Young's modulus” corresponds to the initial resistance of the hair to the applied pulling force, “Work 25%” is the work required to extend the hair fiber to 25% of its length, “Break Extension” is the hair extension observed at the breaking point expressed at percent of its original length, and “Work-Break” is the work required to break the hair.

The mark [6] stands for this setting: 1% solution, relaxed hair, six heat cycles.
[7] abbreviates: relaxed hair after 6 cycles at 130° C. with 1% (w/v) solution, wet tensile, n = 50 fibers.

Three compounds from patent US20030053977A1, “Compositions comprising at least one aminated C5-C7 saccharide unit, and their use for the protection and/or repair of keratinous fibers” (priority 2001, published 2003) can be followed below.

On to `NC1OC[C@@H](O)[C@H](O)[C@@H]1O` (stereo partly drawn) [D-Lyxosylamine], for which the “protection of the α-structure of hair as compared to the control solution (deionized water)” value in test [1] (0.1 wt % solution, normal blonde hair, 12 heat cycles) is reported as “protected the α-structure”. Further, in test [1] (normal blonde hair after 12 heat cycles with 0.1% solution), the “Doublet Peak Area” value is on record as 11.49 +/− 3.56 J/g hair.

In the case of `Cl.N[C@H]1C(O)O[C@H](CO)[C@H](O)[C@@H]1O` (some centres unmarked) [Galactosamine HCI, galactosamine hydrochloride], the “doublet area as compared to the control solution (deionized water)” value in test [2] (1% solution, bleached hair, 12 heat cycles) was “significant increase”. Moreover, the “Doublet Peak Area” value in test [2] (bleached hair after 12 heat cycles with 1% solution) is listed as 41.52 +/− 3.94 J/g hair.

Take `Cl.N[C@H]1C(O)O[C@H](CO)[C@@H](O)[C@@H]1O` (some centres unmarked) [Glucosamine HCl, glucosamine hydrochloride]: the “Doublet Peak Area” value in test [3] (0.001% solution, 6 cycles) is on record as 11.11 +/− 1.74 J/g hair; in test [3] (0.001% solution, 12 cycles), 14.74 +/− 5.95 J/g hair; in test [3] (0.010% solution, 6 cycles), 12.32 +/− 3.74 J/g hair; in test [3] (0.010% solution, 12 cycles), 21.66 +/− 12.88 J/g hair; in test [3] (0.100% solution, 6 cycles) it was 17.32 +/− 2.23 J/g hair; in test [3] (0.100% solution, 12 cycles), 20.92 +/− 1.73 J/g hair. The “Doublet Peak Area” value in test [3] (1.000% solution, 6 cycles) is listed as 19.40 +/− 4.14 J/g hair; in test [3] (1.000% solution, 12 cycles) it was 22.98 +/− 6.57 J/g hair; in test [4] (relaxed hair after 6 heat cycles with 1% solution) it was 23.11 +/− 7.09 J/g hair. Moreover, the “doublet area as compared to the control solution (deionized water)” value in test [3] (0.001% to 1.000% solutions, 6 and 12 heat cycles) is reported as “significant increase”; in test [4] (setting [6]), “significant increase”. In test [5] (setting [6]), the “tensile properties as compared to the control treatment with deionized water” value is listed as “superior tensile properties”. Further, the “Break Extension” value in test [5] (setting [7]) is on record as 55.10 +/− 4.77%. In addition, the “Work 25%” value in test [5] (setting [7]) was 419 +/− 111 J/m^2. Further, the Work-Break in test [5] (setting [7]) is recorded as 1800 +/− 477 J/m^2. For the same compound, the “Young's Modulus” value in test [5] (setting [7]) is reported as 613 +/− 196 MN/m^2.
